Test results published in patent publication US11447505B1, “Pyrrolo[2,3-b]pyridine compounds and their use in the treatment of cancer” (priority 2017, dated 2022).

Columns and labels:
ROCK1 = ROCK1 (Homo sapiens (Human), UniProt Q13464); settings: read-out: ROCK1 Average Ki; 1 μM ATP
Procedure: MRCKα, MRCKβ, ROCK1 and ROCK2 assays were performed using an IMAP fluorescence polarization assay format (Molecular Devices Inc.). […] Typically, dose response analyses were performed over concentration ranges from 0.005-100 μM. […] After 30 min incubation to allow binding reagent to bind phosphorylated peptide, fluorescence polarization was measured on a Tecan Saphire^2 plate reader at excitation (470 nm) and emission (530 nm) wavelengths.

MRCKβ = MRCKβ (Homo sapiens (Human), UniProt Q9Y5S2); test: MRCKβ kinase assay (IMAP fluorescence polarization); assay type: biochemical; settings: 1 μM ATP; read-out: MRCK-B Average Ki
Text: MRCKα, MRCKβ, ROCK1 and ROCK2 Kinase Assays

Sequence of ROCK1 (Q13464 2-1354 limits assumed): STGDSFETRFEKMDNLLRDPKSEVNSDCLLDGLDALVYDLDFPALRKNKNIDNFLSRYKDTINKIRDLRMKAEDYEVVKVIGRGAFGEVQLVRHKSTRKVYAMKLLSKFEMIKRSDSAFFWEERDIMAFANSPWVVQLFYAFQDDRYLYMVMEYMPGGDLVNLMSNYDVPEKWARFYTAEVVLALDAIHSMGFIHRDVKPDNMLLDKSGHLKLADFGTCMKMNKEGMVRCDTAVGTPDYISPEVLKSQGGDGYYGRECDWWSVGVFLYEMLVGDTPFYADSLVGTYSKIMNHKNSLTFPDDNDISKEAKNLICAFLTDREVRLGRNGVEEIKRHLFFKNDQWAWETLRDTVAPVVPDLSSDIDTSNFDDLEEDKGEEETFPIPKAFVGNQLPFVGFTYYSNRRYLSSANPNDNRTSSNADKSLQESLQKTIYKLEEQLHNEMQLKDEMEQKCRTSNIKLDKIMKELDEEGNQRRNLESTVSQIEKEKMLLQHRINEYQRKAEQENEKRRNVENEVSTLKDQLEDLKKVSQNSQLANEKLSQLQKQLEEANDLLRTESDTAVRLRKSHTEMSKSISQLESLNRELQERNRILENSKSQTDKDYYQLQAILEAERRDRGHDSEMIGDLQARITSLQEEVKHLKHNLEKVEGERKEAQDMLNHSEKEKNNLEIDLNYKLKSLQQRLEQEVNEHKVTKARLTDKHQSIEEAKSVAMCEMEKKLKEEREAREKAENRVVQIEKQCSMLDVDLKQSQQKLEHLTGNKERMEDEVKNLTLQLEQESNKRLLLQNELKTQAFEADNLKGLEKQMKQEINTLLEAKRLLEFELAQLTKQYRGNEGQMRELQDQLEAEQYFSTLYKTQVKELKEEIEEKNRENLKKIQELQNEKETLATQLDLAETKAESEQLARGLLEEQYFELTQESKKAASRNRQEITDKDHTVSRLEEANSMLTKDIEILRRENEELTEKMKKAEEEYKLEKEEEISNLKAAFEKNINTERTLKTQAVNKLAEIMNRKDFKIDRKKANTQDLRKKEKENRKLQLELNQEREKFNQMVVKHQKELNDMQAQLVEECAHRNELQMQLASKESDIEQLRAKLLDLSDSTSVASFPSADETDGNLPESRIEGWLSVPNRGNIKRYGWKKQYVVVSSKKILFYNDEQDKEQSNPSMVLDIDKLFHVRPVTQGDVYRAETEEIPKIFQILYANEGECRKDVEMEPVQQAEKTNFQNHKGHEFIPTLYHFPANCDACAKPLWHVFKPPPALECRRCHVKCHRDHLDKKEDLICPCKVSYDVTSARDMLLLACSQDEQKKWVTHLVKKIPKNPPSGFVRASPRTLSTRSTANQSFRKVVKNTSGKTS

In the case of “7-(3-pyridazin-4-yl-1H-pyrrolo[2,3-b]pyridin-4-yl)-2,7-diazaspiro[4.5]decane [Example E163]”, the Ki (ROCK1) is reported as 16.7 nM and the Ki (MRCKβ) is reported as 2.4 nM.

`NC1CN(c2ccnc3[nH]cc(-c4ccncn4)c23)CCC1F` (centres unmarked) [Example E42, 4-fluoro-1-(3-pyrimidin-4-yl-1H-pyrrolo[2,3-b]pyridin-4-yl)piperidin-3-amine] gave a Ki (ROCK1) of 79.6 nM and a Ki (MRCKβ) of 0.323 nM.

`c1cc(-c2c[nH]c3nccc(N4CCCNCC4)c23)cnn1` [Example E43, 4-(1,4-diazepan-1-yl)-3-pyridazin-4-yl-1H-pyrrolo[2,3-b]pyridine] was tested, and the Ki (ROCK1) was 59.5 nM and the Ki (MRCKβ) was 2.61 nM.

Work on `c1ncc(-c2c[nH]c3nccc(N4CCCNCC4)c23)cn1` [Example E44, 4-(1,4-diazepan-1-yl)-3-pyrimidin-5-yl-1H-pyrrolo[2,3-b]pyridine] yielded a Ki (ROCK1) of 461 nM and a Ki (MRCKβ) of 4.5 nM.

`N#Cc1c[nH]c2nccc(N3CCCCC3Cc3ccccc3)c12` (centres unmarked) [Example E106, 4-(2-benzyl-1-piperidyl)-1H-pyrrolo[2,3-b]pyridine-3-carbonitrile] was tested, and the Ki (MRCKβ) was 805 nM.

`c1ncc(-c2c[nH]c3nccc(N4CC[C@]5(CCCN5)C4)c23)cn1` [Example E123, 4-[(5R)-1,7-diazaspiro[4.4]nonan-7-yl]-3-pyrimidin-5-yl-1H-pyrrolo[2,3-b]pyridine] gave a Ki (ROCK1) of 100000 nM and a Ki (MRCKβ) of 9.88 nM.

Compound `c1ncc(-c2c[nH]c3nccc(N4CC[C@@]5(CCCN5)C4)c23)cn1` [Example E124, 4-[(5S)-1,7-diazaspiro[4.4]nonan-7-yl]-3-pyrimidin-5-yl-1H-pyrrolo[2,3-b]pyridine] has a Ki (ROCK1) of 76.9 nM and a Ki (MRCKβ) of 0.947 nM.

`c1ncc(-c2c[nH]c3nccc(N4CC[C@]5(CCCCN5)C4)c23)cn1` [Example E125, (5R)-2-(3-pyrimidin-5-yl-1H-pyrrolo[2,3-b]pyridin-4-yl)-2,6-diazaspiro[4.5]decane] was tested, and the Ki (ROCK1) was 424 nM and the Ki (MRCKβ) was 31.3 nM.

In the case of `c1cc(-c2c[nH]c3nccc(N4CC[C@]5(CCCCN5)C4)c23)ncn1` [Example E127, (5R)-2-(3-pyrimidin-4-yl-1H-pyrrolo[2,3-b]pyridin-4-yl)-2,6-diazaspiro[4.5]decane], the Ki (ROCK1) is reported as 175 nM and the Ki (MRCKβ) is reported as 11.6 nM.

In the case of `Cc1cnc(-c2c[nH]c3nccc(N4CC[C@]5(CCCCN5)C4)c23)s1` [Example E130, 2-[4-[(5R)-2,6-diazaspiro[4.5]decan-2-yl]-1H-pyrrolo[2,3-b]pyridin-3-yl]-5-methyl-thiazole], the Ki (ROCK1) is reported as 100000 nM and the Ki (MRCKβ) is reported as 7.23 nM.

Compound `c1csc(-c2c[nH]c3nccc(N4CC[C@]5(CCCCN5)C4)c23)n1` [Example E132, 2-[4-[(5R)-2,6-diazaspiro[4.5]decan-2-yl]-1H-pyrrolo[2,3-b]pyridin-3-yl]thiazole] has a Ki (ROCK1) of 100000 nM and a Ki (MRCKβ) of 4.11 nM.

In the case of `c1csc(-c2c[nH]c3nccc(N4CC[C@]5(CCCN5)C4)c23)n1` [Example E135, 2-[4-[(5R)-1,7-diazaspiro[4.4]nonan-7-yl]-1H-pyrrolo[2,3-b]pyridin-3-yl]thiazole], the Ki (ROCK1) is reported as 100000 nM and the Ki (MRCKβ) is reported as 10.3 nM.

`c1ccc(-c2c[nH]c3nccc(N4CCC5(CCCN5)C4)c23)nc1` (centres unmarked) [Example E137, 4-(1,7-diazaspiro[4.4]nonan-7-yl)-3-(2-pyridyl)-1H-pyrrolo[2,3-b]pyridine] gave a Ki (ROCK1) of 100000 nM and a Ki (MRCKβ) of 2.83 nM.

With `c1ccc(-c2c[nH]c3nccc(N4CCCC5(CCCCN5)C4)c23)nc1` (centres unmarked) [Example E138, 8-[3-(2-pyridyl)-1H-pyrrolo[2,3-b]pyridin-4-yl]-1,8-diazaspiro[5.5]undecane] the Ki (ROCK1) was 319 nM and the Ki (MRCKβ) was 0.0726 nM.

`c1ccc(-c2c[nH]c3nccc(N4CCC[C@]5(CCCCN5)C4)c23)nc1` [Example E140, (6R)-8-[3-(2-pyridyl)-1H-pyrrolo[2,3-b]pyridin-4-yl]-1,8-diazaspiro[5.5]undecane] was tested, and the Ki (ROCK1) was 97.7 nM and the Ki (MRCKβ) was 7.33 nM.

`c1ccc(-c2c[nH]c3nccc(N4CCC5(CCCCN5)C4)c23)nc1` (centres unmarked) [Example E141, 2-[3-(2-pyridyl)-1H-pyrrolo[2,3-b]pyridin-4-yl]-2,6-diazaspiro[4.5]decane] showed a Ki (ROCK1) of 109 nM and a Ki (MRCKβ) of 0.549 nM.

`Cc1cnc(-c2c[nH]c3nccc(N4CCCC5(CCCN5)C4)c23)s1` (centres unmarked) [Example E143, 2-[4-(1,9-diazaspiro[4.5]decan-9-yl)-1H-pyrrolo[2,3-b]pyridin-3-yl]-5-methyl-thiazole] gave a Ki (ROCK1) of 100000 nM and a Ki (MRCKβ) of 0.882 nM.

With `Cc1cnc(-c2c[nH]c3nccc(N4CCC5(CCCCN5)C4)c23)s1` (centres unmarked) [Example E144, 2-[4-(2,6-diazaspiro[4.5]decan-2-yl)-1H-pyrrolo[2,3-b]pyridin-3-yl]-5-methyl-thiazole] the Ki (ROCK1) was 386 nM and the Ki (MRCKβ) was 0.154 nM.

For `Cc1cnc(-c2c[nH]c3nccc(N4CCCC5(CCCCN5)C4)c23)s1` (centres unmarked) [Example E147, 2-[4-(1,8-diazaspiro[5.5]undecan-8-yl)-1H-pyrrolo[2,3-b]pyridin-3-yl]-5-methyl-thiazole], the Ki (ROCK1) was 100000 nM and the Ki (MRCKβ) was 0.0924 nM.

In the case of `Cc1cnc(-c2c[nH]c3nccc(N4CCC[C@]5(CCCCN5)C4)c23)s1` [Example E148, 2-[4-[(6R)-1,8-diazaspiro[5.5]undecan-8-yl]-1H-pyrrolo[2,3-b]pyridin-3-yl]-5-methyl-thiazole], the Ki (ROCK1) is reported as 100000 nM and the Ki (MRCKβ) is reported as 4.02 nM.

In the case of `c1csc(-c2c[nH]c3nccc(N4CCCC5(CCCCN5)C4)c23)n1` (centres unmarked) [Example E149, 2-[4-(1,8-diazaspiro[5.5]undecan-8-yl)-1H-pyrrolo[2,3-b]pyridin-3-yl]thiazole], the Ki (ROCK1) is reported as 304 nM and the Ki (MRCKβ) is reported as 0.0633 nM.

`c1csc(-c2c[nH]c3nccc(N4CCC[C@]5(CCCCN5)C4)c23)n1` [Example E151, 2-[4-[(6R)-1,8-diazaspiro[5.5]undecan-8-yl]-1H-pyrrolo[2,3-b]pyridin-3-yl]thiazole] was tested, and the Ki (ROCK1) was 114 nM and the Ki (MRCKβ) was 3.21 nM.

With `Cc1cnc(-c2c[nH]c3nccc(N4CCC5(CCN5)C4)c23)s1` (centres unmarked) [Example E152, 2-[4-(1,7-diazaspiro[3.4]octan-7-yl)-1H-pyrrolo[2,3-b]pyridin-3-yl]-5-methyl-thiazole] the Ki (ROCK1) was 100000 nM and the Ki (MRCKβ) was 4.65 nM.

`Cc1cnc(-c2c[nH]c3nccc(N4CCCC5(CCN5)C4)c23)s1` (centres unmarked) [Example E153, 2-[4-(1,8-diazaspiro[3.5]nonan-8-yl)-1H-pyrrolo[2,3-b]pyridin-3-yl]-5-methyl-thiazole] showed a Ki (ROCK1) of 100000 nM and a Ki (MRCKβ) of 9.36 nM.

`c1csc(-c2c[nH]c3nccc(N4CCC5(CCCN5)C4)c23)n1` (centres unmarked) [Example E154, 2-[4-(1,7-diazaspiro[4.4]nonan-7-yl)-1H-pyrrolo[2,3-b]pyridin-3-yl]thiazole] showed a Ki (ROCK1) of 239 nM and a Ki (MRCKβ) of 0.37 nM.

With `c1cc(-c2c[nH]c3nccc(N4CCCC5(CNC5)C4)c23)cnn1` [Example E156, 4-(2,6-diazaspiro[3.5]nonan-6-yl)-3-pyridazin-4-yl-1H-pyrrolo[2,3-b]pyridine] the Ki (ROCK1) was 57.4 nM and the Ki (MRCKβ) was 1.69 nM.

For `Cc1csc(-c2c[nH]c3nccc(N4CCCC5(CCCCN5)C4)c23)n1` (centres unmarked) [Example E158, 2-[4-(1,8-diazaspiro[5.5]undecan-8-yl)-1H-pyrrolo[2,3-b]pyridin-3-yl]-4-methyl-thiazole], the Ki (ROCK1) was 100000 nM and the Ki (MRCKβ) was 0.36 nM.

In the case of `Cc1nccc(-c2c[nH]c3nccc(N4CCCC5(CCCCN5)C4)c23)n1` (centres unmarked) [Example E160, 8-[3-(2-methylpyrimidin-4-yl)-1H-pyrrolo[2,3-b]pyridin-4-yl]-1,8-diazaspiro[5.5]undecane], the Ki (ROCK1) is reported as 100000 nM and the Ki (MRCKβ) is reported as 2.76 nM.

`c1cc(-c2c[nH]c3nccc(N4CCC5(CCCN5)C4)c23)cnn1` (centres unmarked) [Example E161, 4-(1,7-diazaspiro[4.4]nonan-7-yl)-3-pyridazin-4-yl-1H-pyrrolo[2,3-b]pyridine] was tested, and the Ki (ROCK1) was 34.1 nM and the Ki (MRCKβ) was 0.933 nM.

In the case of `c1cc(-c2c[nH]c3nccc(N4CCC5(CCCCN5)C4)c23)cnn1` (centres unmarked) [Example E162, 2-(3-pyridazin-4-yl-1H-pyrrolo[2,3-b]pyridin-4-yl)-2,6-diazaspiro[4.5]decane], the Ki (ROCK1) is reported as 16.9 nM and the Ki (MRCKβ) is reported as 0.219 nM.

In the case of `c1cc(-c2c[nH]c3nccc(N4CCC5(CCNC5)C4)c23)cnn1` (centres unmarked) [Example E164, 4-(2,7-diazaspiro[4.4]nonan-2-yl)-3-pyridazin-4-yl-1H-pyrrolo[2,3-b]pyridine], the Ki (ROCK1) is reported as 0.448 nM and the Ki (MRCKβ) is reported as 1.12 nM.

Work on `N#Cc1c[nH]c2nccc(N3CCCC4(CCCCN4)C3)c12` (centres unmarked) [Example E165, 4-(1,8-diazaspiro[5.5]undecan-8-yl)-1H-pyrrolo[2,3-b]pyridine-3-carbonitrile] yielded a Ki (ROCK1) of 174 nM and a Ki (MRCKβ) of 0.249 nM.

`Cc1ncc(-c2c[nH]c3nccc(N4CCCC5(CCCCN5)C4)c23)cn1` (centres unmarked) [Example E166, 8-[3-(2-methylpyrimidin-5-yl)-1H-pyrrolo[2,3-b]pyridin-4-yl]-1,8-diazaspiro[5.5]undecane] gave a Ki (ROCK1) of 100000 nM and a Ki (MRCKβ) of 0.786 nM.

With `Cc1noc(C)c1-c1c[nH]c2nccc(N3CCCC4(CCCCN4)C3)c12` (centres unmarked) [Example E167, 4-[4-(1,8-diazaspiro[5.5]undecan-8-yl)-1H-pyrrolo[2,3-b]pyridin-3-yl]-3,5-dimethyl-isoxazole] the Ki (ROCK1) was 100000 nM and the Ki (MRCKβ) was 108 nM.

Work on `c1cc(-c2c[nH]c3nccc(N4CCC[C@]5(CCCCN5)C4)c23)cnn1` [Example E173, (6R)-8-(3-pyridazin-4-yl-1H-pyrrolo[2,3-b]pyridin-4-yl)-1,8-diazaspiro[5.5]undecane] yielded a Ki (ROCK1) of 294 nM and a Ki (MRCKβ) of 1.18 nM.

With `N#Cc1c[nH]c2nccc(N3CCC4(CCCN4)C3)c12` (centres unmarked) [Example E185, 4-(1,7-diazaspiro[4.4]nonan-7-yl)-1H-pyrrolo[2,3-b]pyridine-3-carbonitrile] the Ki (ROCK1) was 13.6 nM and the Ki (MRCKβ) was 1.92 nM.

Compound `CN(C)C(=O)C1(N)CCN(c2ccnc3[nH]cc(-c4cncnc4)c23)CC1` [Example E198, 4-amino-N,N-dimethyl-1-(3-pyrimidin-5-yl-1H-pyrrolo[2,3-b]pyridin-4-yl)piperidine-4-carboxamide] has a Ki (MRCKβ) of 42.9 nM.

`N#Cc1c[nH]c2nccc(N3CCC[C@H]3C(=O)N3CCOCC3)c12` [Example E202, 4-[(2S)-2-(morpholine-4-carbonyl)pyrrolidin-1-yl]-1H-pyrrolo[2,3-b]pyridine-3-carbonitrile] showed a Ki (MRCKβ) of 992 nM.

With `N#Cc1c[nH]c2nccc(N3CCC[C@H]3C(=O)N3CCCCC3)c12` [Example E203, 4-[(2S)-2-(piperidine-1-carbonyl)pyrrolidin-1-yl]-1H-pyrrolo[2,3-b]pyridine-3-carbonitrile] the Ki (MRCKβ) was 804 nM.
